Reference: patent US5585273A (priority 1994, dated 1996)
Where a SMILES comes first, the peptide text is derived from it. [ ]: non-standard residue; d: D form. The star is where a group is joined. Sta = CC(C)C[C@H](N)[C@@H](O)CC(=O)O; Isovaleryl = CC(C)CC(=O)*

Assays:
[1] = biological target: Candida albicans aspartic protease (Candida albicans, UniProt P0DJ06); conditions: Part II
Protocol: (§1) In the second part, the enzymes are preincubated with their respective inhibitors and appropriate buffers for 15 mins. These are then added to the substrate and incubated at room temp for further 15 mins.
(§2) In both cases, the reaction mixture is centrifuged to remove solid phase conjugate. The supernatant (5 μl) is added to Hemoccult® slides and developed with 5 μl of hydrogen peroxide.

[2] = test system: Candida albicans aspartic protease; conditions: background statement; cited from earlier work
[3] = biological target: T1, Trypsin (serine protease) from bovine pancreas (Bos taurus, UniProt P00760); assay: Inhibition of trypsin-mediated HRPO release (Experiment XV, Part 2); assay type: biochemical; conditions: Part II
T1 construct: purchased U.S. Biochemicals; host or cells: bovine pancreas
Protocol: as §1, §2

[4] = biological target: T2, Papain (thiol protease) from papaya latex (Carica papaya, UniProt P00784); assay: Inhibition of papain-mediated HRPO release (Experiment XV, Part 2); assay type: biochemical; conditions: Part II
T2 construct: purchased Sigma Chemical Co; host or cells: papaya latex
Protocol: as §1, §2

[5] = test system: [POLYMERIC DIALDEHYDE-KAPPA-CASEIN-HRPO] conjugate; conditions: acetate buffer pH 4.0, 15 minutes at room temperature
Protocol: The suspension was incubated at room temperature for 15 minutes and centrifuged to remove the solid phase conjugate. Five microliters of the supernatant were added to a guaiac slide, followed by five microliters of hydrogen peroxide solution.

[6] = test system: [Sepharose-Hemoglobin-HRPO] (or the myoglobin equivalent) conjugate; conditions: acetate buffer pH 4.0, 15 minutes at room temperature
Protocol: 40 mg (wet weight) [Sepharose-Hemoglobin-HRPO] (or the myoglobin equivalent) conjugate were suspended in 75 microliters acetate buffer, pH 4.0 and 25 microliters of test solution were added. The suspension was incubated at room temperature for 15 minutes and centrifuged to remove the solid phase conjugate. Five microliters of the supernatant were added to a guaiac slide, followed by five microliters of hydrogen peroxide solution.

[7] = test system: [Sepharose-Casein-HRPO] (or the Kappa-Casein equivalent) conjugate; conditions: acetate buffer pH 4.0, 15 minutes at room temperature
Protocol: 40 mg (wet weight) [Sepharose-Casein-HRPO] (or the Kappa-Casein equivalent) conjugate were suspended in 75 microliters acetate buffer, pH 4.0 and 25 microliters of test solution were added. The suspension was incubated at room temperature for 15 minutes and centrifuged to remove the solid phase conjugate. Five microliters of the supernatant were added to a guaiac slide, followed by five microliters of hydrogen peroxide solution.

[8] = test system: [Chitin-Kappa-Casein-HRPO] conjugate; conditions: acetate buffer pH 4.0, 15 minutes at room temperature
Protocol: 40 mg (wet weight) [Chitin-Kappa-Casein-HRPO] conjugate were suspended in 75 microliters acetate buffer, pH 4.0 and 25 microliters of test solution were added. The suspension was incubated at room temperature for 15 minutes and centfifuged to remove the solid phase conjugate. Five μl of the supernatant were added to a guaiac slide, followed by five microliters of hydrogen peroxide solution.

[9] = test system: [Sigmacell® 20-Hemoglobin-HRPO] (or the myoglobin equivalent) conjugate; conditions: acetate buffer pH 4.0, 15 minutes at room temperature
Protocol: 40 mg (wet weight) [Sigmacell® 20-Hemoglobin-HRPO] (or the myoglobin equivalent) conjugate were suspended in 75 microliters acetate buffer, pH 4.0 and 25 microliters of test solution were added. The suspension was incubated at room temperature for 15 minutes and centrifuged to remove the solid phase conjugate. Five microliters of the supernatant were added to a guaiac slide, followed by five microliters of hydrogen peroxide solution.

[10] = test system: [Sigmacell® 20-Kappa-Casein-HRPO] conjugate; conditions: acetate buffer pH 4.0, 15 minutes at room temperature
Protocol: (§3) 40 mg (wet weight) [Sigmacell® 20-Kappa-Casein-HRPO] conjugate were suspended in 75 microliters acetate buffer, pH 4.0 and 25 microliters of test solution were added. The suspension was incubated at room temperature for 15 minutes and centrifuged to remove the solid phase conjugate. Five microliters of the supernatant were added to a guaiac slide, followed by five microliters of hydrogen peroxide solution.

[11] = test system: [SIGMACELL® 20-KAPPA-CASEIN-HRPO] (HYDRAZIDE METHOD) or [SIGMACELL® 20-MYOGLOBIN/HEMOGLOBIN-HRPO] (ALDEHYDE METHOD); conditions: acetate buffer pH 4.0, 15 minutes at room temperature
Protocol: as §3

[12] = test system: [Eupergit® C-Myoglobin-HRPO]; assay: Activity of various proteases on Eupergit C-myoglobin-HRPO (Experiment XV); assay type: biochemical; conditions: Part I
Protocol: This assay is set up in two parts. The first is to determine the activity of the different proteases on the substrate [Eupergit® C-Myoglobin-HRPO]. The enzymes and controls (enzymes boiled for 15 min) are incubated with 20 mg of substrate and buffers (see quantities in table below) for 15 minutes prior to assay.

Sequence of Candida albicans aspartic protease (Candida albicans, UniProt P0DJ06) (P0DJ06 57-398): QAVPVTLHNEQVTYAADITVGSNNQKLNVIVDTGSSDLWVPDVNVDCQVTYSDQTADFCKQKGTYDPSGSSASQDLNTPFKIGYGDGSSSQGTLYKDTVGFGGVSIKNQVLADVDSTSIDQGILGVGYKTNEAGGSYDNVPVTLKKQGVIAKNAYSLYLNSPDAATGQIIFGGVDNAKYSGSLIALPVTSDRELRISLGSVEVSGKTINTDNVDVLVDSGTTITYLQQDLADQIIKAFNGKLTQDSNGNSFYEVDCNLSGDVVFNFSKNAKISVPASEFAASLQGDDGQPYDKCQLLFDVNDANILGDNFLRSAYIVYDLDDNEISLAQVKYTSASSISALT

Molecule: CC(C)CC(=O)N[C@H](C(=O)N[C@H](C(=O)N[C@@H](CC(C)C)[C@@H](O)CC(=O)N[C@@H](C)C(=O)N[C@@H](CC(C)C)[C@@H](O)CC(=O)O)C(C)C)C(C)C [Pepstatin, Pepstatin A] (Isovaleryl-VV[Sta]A[Sta]-OH)
- inhibition of color formation by aspartic protease [1]: inhibits color formation
- inhibition of Candida albicans aspartic protease [2]: strongly inhibited

Molecule: Cc1ccc(S(=O)(=O)NC(CCCCN)C(=O)CCl)cc1 (stereo not drawn) [TLCK, Tosyl lysine chloromethyl ketone]
- inhibition of color formation by trypsin [3]: inhibits color formation
- inhibition of color formation by papain [4]: inhibits color formation

Molecule: Pepsin
- blue color formation on guaiac impregnated sheet [5]: dark blue color
- blue color formation on guaiac impregnated sheet [6]: dark blue color
- blue color formation on guaiac impregnated sheet [7]: dark blue color
- blue color formation on guaiac impregnated sheet [8]: dark blue color
- blue color formation on guaiac impregnated sheet [9]: dark blue color
- blue color formation on guaiac impregnated sheet [10]: dark blue color
- blue color formation on guaiac impregnated sheet [11]: dark blue color

B1: Papain (boiled): papain boiled for 15 min (control) (protein, UniProt P00784 134-345, looked up)
Papain: IPEYVDWRQKGAVTPVKNQGSCGSCWAFSAVVTIEGIIKIRTGNLNEYSEQELLDCDRRSYGCNGGYPWSALQLVAQYGIHYRNTYPYEGVQRYCRSREKGPYAAKTDGVRQVQPYNEGALLYSIANQPVSVVLEAAGKDFQLYRGGIFVGPCGNKVDHAVAAVGYGPNYILIKNSWGTGWGENGYIRIKRGTGNSYGVCGLYTSSFYPVKN
modifications: heat-denatured
- blue color formation on guaiac slides ([12]; pH 7.4): faintest color detectable

B2: Papain: Papain (thiol protease) from papaya latex (12 units/mg activity), 2 mg/ml (protein, UniProt P00784 134-345, looked up)
Papain: IPEYVDWRQKGAVTPVKNQGSCGSCWAFSAVVTIEGIIKIRTGNLNEYSEQELLDCDRRSYGCNGGYPWSALQLVAQYGIHYRNTYPYEGVQRYCRSREKGPYAAKTDGVRQVQPYNEGALLYSIANQPVSVVLEAAGKDFQLYRGGIFVGPCGNKVDHAVAAVGYGPNYILIKNSWGTGWGENGYIRIKRGTGNSYGVCGLYTSSFYPVKN
- blue color formation on guaiac slides ([12]; pH 7.0): strong blue color

B3: Trypsin (boiled): trypsin boiled for 15 min (control) (protein, UniProt P00760 24-246, looked up)
Serine protease 1: IVGGYTCGANTVPYQVSLNSGYHFCGGSLINSQWVVSAAHCYKSGIQVRLGEDNINVVEGNEQFISASKSIVHPSYNSNTLNNDIMLIKLKSAASLNSRVASISLPTSCASAGTQCLISGWGNTKSSGTSYPDVLKCLKAPILSDSSCKSAYPGQITSNMFCAGYLEGGKDSCQGDSGGPVVCSGKLQGIVSWGSGCAQKNKPGVYTKVCNYVSWIKQTIASN
modifications: heat-denatured
- blue color formation on guaiac slides ([12]; pH 7.4): faintest color detectable

B4: Trypsin: Trypsin (serine protease) from bovine pancreas (2900 units/mg activity), 2 mg/ml (protein, UniProt P00760 24-246, looked up)
Serine protease 1: IVGGYTCGANTVPYQVSLNSGYHFCGGSLINSQWVVSAAHCYKSGIQVRLGEDNINVVEGNEQFISASKSIVHPSYNSNTLNNDIMLIKLKSAASLNSRVASISLPTSCASAGTQCLISGWGNTKSSGTSYPDVLKCLKAPILSDSSCKSAYPGQITSNMFCAGYLEGGKDSCQGDSGGPVVCSGKLQGIVSWGSGCAQKNKPGVYTKVCNYVSWIKQTIASN
- blue color formation on guaiac slides ([12]; pH 7.4): strong blue color
